Results on 23 compounds are retold here after patent US10647713B2 (Nimbus Lakshmi, Inc., priority 2016, dated 2020).

Molecules are shown by their SMILES.

For the assay, the target named is human TYK2 (JH2domain-pseudokinase) (Homo sapiens (Human), UniProt P29597). The experiment in a line: TYK2 JH2 Domain Binding Assay (KINOMEscan, DiscoveRx). The settings on record: 11-point dilution, duplicate. The method, boiled down: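 Kd from duplicate 11-point 3-fold dilutions starting at 30,000 nM, fitted by Hill equation with slope fixed at −1. Compounds (final 0.9% DMSO) displace DNA-tagged HEK293-expressed TYK2 JH2 fusion (<0.1 nM) from ligand-coated beads over 1 h at room temperature; eluted kinase read by qPCR.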
Sequence of human TYK2 (JH2domain-pseudokinase) (P29597 556-888): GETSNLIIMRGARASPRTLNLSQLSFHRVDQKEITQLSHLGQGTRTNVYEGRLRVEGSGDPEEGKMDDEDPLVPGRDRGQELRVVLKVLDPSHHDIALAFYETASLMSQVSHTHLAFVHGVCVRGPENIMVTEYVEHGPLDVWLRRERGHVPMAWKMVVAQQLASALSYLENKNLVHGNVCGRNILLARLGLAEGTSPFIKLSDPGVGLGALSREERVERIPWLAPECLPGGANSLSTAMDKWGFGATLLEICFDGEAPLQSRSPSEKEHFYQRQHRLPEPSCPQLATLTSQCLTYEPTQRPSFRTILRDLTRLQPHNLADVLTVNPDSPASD
For `COc1c(Nc2cc(NC(=O)[C@H]3C[C@@H]3F)nc3[nH]c(C)nc23)cccc1-c1ncn(C)n1` [I-373, (1R,2S)-2-fluoro-N-(7-((2-methoxy-3-(1-methyl-1H-1,2,4-triazol-3-yl)phenyl)amino)-2-methyl-3H-imidazo[4,5-b]pyridin-5-yl)cyclopropane-1-carboxamide], the Kd (as a rule, a measure of binding affinity in units of concentration) was in the range of 1 to 10 nM.

The compound `Cc1nc2c(Nc3ccc(C4CCCCO4)cc3N(C)S(C)(=O)=O)cc(NC(=O)C3CC3)nc2[nH]1` (centres unmarked) [I-375, N-(2-methyl-7-((2-(N-methylmethylsulfonamido)-4-(tetrahydro-2H-pyran-2-yl)phenyl)amino)-3H-imidazo[4,5-b]pyridin-5-yl)cyclopropanecarboxamide] yielded a Kd of 0.1 to 0.5 nM.

`Cc1nc2c(Nc3ccc(-c4cnn(C)c4)cc3N(C)S(C)(=O)=O)cc(NC(=O)C3CC3(F)F)nc2[nH]1` (centres unmarked) [I-376, 2,2-difluoro-N-(2-methyl-7-((4-(1-methyl-1H-pyrazol-4-yl)-2-(N-methylmethylsulfonamido)phenyl)amino)-3H-imidazo[4,5-b]pyridin-5-yl)cyclopropane-1-carboxamide]: the Kd is > 10 nM.

Turning to `Cc1nc2c(Nc3ccc(-c4ccn(C)n4)cc3S(C)(=O)=O)cc(NC(=O)C3CC3(F)F)nc2[nH]1` (centres unmarked) [I-377, 2,2-difluoro-N-(2-methyl-7-((4-(1-methyl-1H-pyrazol-3-yl)-2-(methylsulfonyl)phenyl)amino)-3H-imidazo[4,5-b]pyridin-5-yl)cyclopropane-1-carboxamide], the Kd was 0.5 to 1 nM.

For the compound `Cc1nc2c(Nc3ccc(-c4cn(C)cn4)cc3S(C)(=O)=O)cc(NC(=O)C3CC3(F)F)nc2[nH]1` (centres unmarked) [I-378, N-(7-((4-(1l2-imidazol-4-yl)-2-(methylsulfonyl)phenyl)amino)-2-methyl-3H-imidazo[4,5-b]pyridin-5-yl)-2,2-difluorocyclopropane-1-carboxamide], the Kd fell in the range of 0.5 to 1 nM.

The compound `Cn1cncc1-c1ccc(Nc2cc(NC(=O)C3CC3(F)F)nc3[nH]c(C(F)F)nc23)c(S(C)(=O)=O)c1` (centres unmarked) [I-379, N-(2-(difluoromethyl)-7-((4-(1-methyl-1H-imidazol-5-yl)-2-(methylsulfonyl)phenyl)amino)-3H-imidazo[4,5-b]pyridin-5-yl)-2,2-difluorocyclopropane-1-carboxamide] showed a Kd of 0.1 to 0.5 nM.

Compound `CN(c1cc(-c2cncn2C)ccc1Nc1cc(NC(=O)C2CC2(F)F)nc2[nH]c(C(F)F)nc12)S(C)(=O)=O` (centres unmarked) [I-380, N-(2-(difluoromethyl)-7-((4-(1-methyl-1H-imidazol-5-yl)-2-(N-methylmethylsulfonamido)phenyl)amino)-3H-imidazo[4,5-b]pyridin-5-yl)-2,2-difluorocyclopropane-1-carboxamide] returned a Kd of 0.5 to 1 nM.

As to `Cn1cnc(-c2ccc(Nc3cc(NC(=O)C4CC4(F)F)nc4[nH]c(C(F)F)nc34)c(S(C)(=O)=O)c2)c1` (centres unmarked) [I-381, N-(2-(difluoromethyl)-7-((4-(1-methyl-1H-imidazol-4-yl)-2-(methylsulfonyl)phenyl)amino)-3H-imidazo[4,5-b]pyridin-5-yl)-2,2-difluorocyclopropane-1-carboxamide], the Kd was 1 to 10 nM.

The compound `Cc1nc2c(Nc3ccc(-c4cncn4C)cc3S(C)(=O)=O)cc(NC(=O)C3CC3(F)F)nc2[nH]1` (centres unmarked) [I-382, 2,2-difluoro-N-(2-methyl-7-((4-(1-methyl-1H-imidazol-5-yl)-2-(methylsulfonyl)phenyl)amino)-3H-imidazo[4,5-b]pyridin-5-yl)cyclopropane-1-carboxamide] displayed an equilibrium dissociation constant (Kd) of 0.1 to 0.5 nM.

Consider `COc1cc(Nc2ccc(-c3ccn(C)n3)cc2S(C)(=O)=O)c2nc(C)[nH]c2n1` [I-383, 5-methoxy-2-methyl-N-(4-(1-methyl-1H-pyrazol-3-yl)-2-(methylsulfonyl)phenyl)-3H-imidazo[4,5-b]pyridin-7-amine], for which the Kd is > 10 nM.

Compound `Cc1nc2c(Nc3ccc(-c4cncn4C)cc3N(C)S(C)(=O)=O)cc(NC(=O)C3CC3(F)F)nc2[nH]1` (centres unmarked) [I-384, 2,2-difluoro-N-(2-methyl-7-((4-(1-methyl-1H-imidazol-5-yl)-2-(N-methylmethylsulfonamido)phenyl)amino)-3H-imidazo[4,5-b]pyridin-5-yl)cyclopropane-1-carboxamide] gave a Kd of 0.5 to 1 nM.

`CN(c1cc(-c2cnn(C)c2)ccc1Nc1cc(NC(=O)C2CC2(F)F)nc2[nH]c(C(F)F)nc12)S(C)(=O)=O` (centres unmarked) [I-385, N-(2-(difluoromethyl)-7-((4-(1-methyl-1H-pyrazol-4-yl)-2-(N-methylmethylsulfonamido)phenyl)amino)-3H-imidazo[4,5-b]pyridin-5-yl)-2,2-difluorocyclopropane-1-carboxamide]: the Kd fell in the range of 0.5 to 1 nM.

With `Cn1ccc(-c2ccc(Nc3cc(NC(=O)C4CC4(F)F)nc4[nH]c(C(F)F)nc34)c(S(C)(=O)=O)c2)n1` (centres unmarked) [I-386, N-(2-(difluoromethyl)-7-((4-(1-methyl-1H-pyrazol-3-yl)-2-(methylsulfonyl)phenyl)amino)-3H-imidazo[4,5-b]pyridin-5-yl)-2,2-difluorocyclopropane-1-carboxamide], the Kd is 0.5 to 1 nM.

On to `Cc1nc2c(Nc3ccc(C4CCCCO4)cc3S(C)(=O)=O)cc(NC(=O)C3CC3)nc2[nH]1` (centres unmarked) [I-387, N-(2-methyl-7-((2-(methylsulfonyl)-4-(tetrahydro-2H-pyran-2-yl)phenyl)amino)-3H-imidazo[4,5-b]pyridin-5-yl)cyclopropanecarboxamide], for which the Kd is < 0.1 nM.

Turning to `Cc1nc2c(Nc3ccc(C4CCOC4)cc3S(C)(=O)=O)cc(NC(=O)C3CC3)nc2[nH]1` (centres unmarked) [I-388, N-(2-methyl-7-((2-(methylsulfonyl)-4-(tetrahydrofuran-3-yl)phenyl)amino)-3H-imidazo[4,5-b]pyridin-5-yl)cyclopropanecarboxamide], the Kd lay in the range of 0.1 to 0.5 nM.

Compound `CS(=O)(=O)c1cc(C2CCOC2)ccc1Nc1cc(NC(=O)C2CC2)nc2[nH]c(C(F)F)nc12` (centres unmarked) [I-389, N-(2-(difluoromethyl)-7-((2-(methylsulfonyl)-4-(tetrahydrofuran-3-yl)phenyl)amino)-3H-imidazo[4,5-b]pyridin-5-yl)cyclopropanecarboxamide] yielded a Kd of 0.5 to 1 nM.

With `Cc1nc2c(Nc3ccc(C4CCCOC4)cc3S(C)(=O)=O)cc(NC(=O)C3CC3)nc2[nH]1` (centres unmarked) [I-390, N-(2-methyl-7-((2-(methylsulfonyl)-4-(tetrahydro-2H-pyran-3-yl)phenyl)amino)-3H-imidazo[4,5-b]pyridin-5-yl)cyclopropanecarboxamide], the Kd lay in the range of 0.1 to 0.5 nM.

`CS(=O)(=O)c1cc(C2CCCOC2)ccc1Nc1cc(NC(=O)C2CC2)nc2[nH]c(C(F)F)nc12` (centres unmarked) [I-391, N-(2-(difluoromethyl)-7-((2-(methylsulfonyl)-4-(tetrahydro-2H-pyran-3-yl)phenyl)amino)-3H-imidazo[4,5-b]pyridin-5-yl)cyclopropanecarboxamide] came in with a Kd of 0.1 to 0.5 nM.

Take `CS(=O)(=O)c1ccccc1Nc1cc(Nc2cc3c(nn2)CCC3)nc2[nH]c(C(F)F)nc12` [I-392]: the Kd was < 0.1 nM.

As to `COCCCc1csc(-c2ccc(Nc3cc(NC(=O)C4CC4)nc4[nH]c(C(F)F)nc34)c(S(C)(=O)=O)c2)n1` [I-393], the Kd was in the range of 0.5 to 1 nM.

In turn, `Cc1nc2c(Nc3ccc(-c4cnn(C)c4C)cc3S(C)(=O)=O)cc(Nc3ccc(C(C)C)c(C#N)n3)nc2[nH]1` [I-394] registered a Kd of 0.1 to 0.5 nM.

For the compound `CN=[S@](C)(=O)c1ccccc1Nc1cc(NC(=O)C2CC2)nc2[nH]c(C(F)F)nc12` [I-395], the Kd was in the range of 0.1 to 0.5 nM.

For `CN=[S@@](C)(=O)c1ccccc1Nc1cc(NC(=O)C2CC2)nc2[nH]c(C(F)F)nc12` [I-396], the Kd was in the range of 1 to 10 nM.
